Measured values: publication PMC12267067, “Targeting GRPR for sex hormone-dependent cancer after loss of E-cadherin” (Nature, 2025)

Columns and labels:
GRPR mRNA in MCF7 cells = test: Pharmacological targeting of ERα: GRPR mRNA in MCF7 cells; type: cell-based, human; details: 17β-estradiol 100 nM or ICI 182,780 1 µM
Experimental: (§1) RNA (3 µg) was reverse transcribed using M‐MLV reverse transcriptase (Invitrogen), according to the manufacturer’s protocol. The newly synthesized cDNA was used as a template for qPCR with the iTaq Universal SYBR Green Supermix. Technical triplicates were used for each sample and the quantified RNA normalized against TBP (human) or Hprt (mouse) as housekeeping transcripts (Supplementary Tables 9 and 10).
(§2) For hormone depletion, FCS was stripped using the dextran-coated charcoal method. In brief, Norit activated charcoal (C6241-5G, Sigma-Aldrich, final concentration of 0.25%) and Dextran T-70 (31390, Sigma-Aldrich, final concentration of 0.0025%) in 0.25 M sucrose/1.5 mM MgCl2/10 mM HEPES (H4034, Sigma-Aldrich), pH 7.4, were incubated overnight at 4 °C. The volume equivalent to the volume of the FCS to strip was pipetted into a new 50 ml tube and centrifugated at 500g for 10 min to remove the supernatant. The FCS was incubated with the activated charcoal for 12 h at 4 °C. The treated FCS was then filtered through a 0.22-µM pore filter to ensure sterility and mixed with the appropriate phenol red-free medium and PS. Cells were collected using phenol red-free trypsin and starved for oestrogen using phenol red-free/10% stripped FCS for four days. […]

[1] = tested on: Grpr expression in ESR1pos 1057 melanoma cells; test: Pharmacological targeting of ERα: Grpr expression in 1057 cells; type: cell-based, mouse; details: 100 nM E2 or 1 µM ICI 182,780, 72 h, after oestrogen starvation for four days
Experimental: as §1, §2

GRPR, Gαq/11 activation = test: IP1 detection (HTRF IP-one Gq kit); type: cell-based, mouse; details: 4,000 cells, 30 min, 37 °C, StimB buffer, 10 nM GRP, 1 µM RC-3095, 1 µM ICI-182,780 (pre-treatment)
Experimental: IP1 levels were quantified using the HTRF IP-one Gq detection kit (62IPAPEB, Revvity) following the manufacturer’s protocol. We treated 4,000 cells for 30 min at 37 °C in StimB buffer with 10 nM GRP, 1 µM RC-3095, 1 µM ICI-182,780 or DMSO. FRET signals (620 nm and 665 nm, excitation at 385 nm) were measured using a Clariostar plate reader (BMG Labtech).

[2] = biological target: T1, ERα in 1057 mouse melanoma cells (Mus musculus, UniProt P19785); test: Western blot of ERα after ICI; type: cell-based; details: 1057 cells, ICI 1 μM, 24 h
T1 construct: Effect of ICI treatment on ERα protein levels in murine 1057 melanoma cells; endogenous in cells; host or cells: 1057 mouse melanoma cells (female, ΔEcad, Esr1-positive)
T1 sequence (P19785 1-599): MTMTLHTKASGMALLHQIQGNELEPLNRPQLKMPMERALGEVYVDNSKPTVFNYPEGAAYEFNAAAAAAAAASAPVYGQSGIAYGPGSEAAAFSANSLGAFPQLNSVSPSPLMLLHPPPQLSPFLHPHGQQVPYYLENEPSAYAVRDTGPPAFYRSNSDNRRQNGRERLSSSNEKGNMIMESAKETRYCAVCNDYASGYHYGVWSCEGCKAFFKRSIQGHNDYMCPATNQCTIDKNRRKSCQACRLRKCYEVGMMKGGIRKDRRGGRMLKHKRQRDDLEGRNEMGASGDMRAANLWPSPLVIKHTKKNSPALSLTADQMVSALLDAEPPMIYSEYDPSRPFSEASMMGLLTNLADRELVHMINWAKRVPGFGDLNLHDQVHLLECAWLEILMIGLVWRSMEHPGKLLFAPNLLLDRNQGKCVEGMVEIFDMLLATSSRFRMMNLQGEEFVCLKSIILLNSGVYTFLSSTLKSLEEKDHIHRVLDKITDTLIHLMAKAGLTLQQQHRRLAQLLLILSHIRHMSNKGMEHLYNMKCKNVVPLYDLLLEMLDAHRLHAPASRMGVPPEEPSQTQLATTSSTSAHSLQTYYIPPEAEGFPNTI
Experimental: (§3) Whole-cell lysates were prepared and analysed as described previously. The primary antibodies used were: E-cadherin (610182, BD Transduction Laboratories, dilution 1/1,000); ERα (MA1-27107, Invitrogen, dilution 1/500); YAP (14074, Cell Signaling, dilution 1/1,000); β-actin (A5441, Sigma, dilution 1/5,000); and vinculin (4650, Cell Signaling, dilution 1/5,000). All raw data are provided in Supplementary Fig. 1.

[3] = tested on: mouse melanoma cell lines (1057, 1064, 1181, 1039, 1456, 1014); test: Matrigel invasion assay, mouse melanoma cells; type: cell-based; details: 24 h
Experimental: Matrigel invasion assays were done in transwell plates with 8.0-µm pores (353097, Falcon) coated with 100 µl of 200 µg ml^−1 Matrigel. Depending on the experiments, cells were seeded directly or 24 h after transfection in low-serum medium (0.5% FCS for murine cells and 1% for human cell lines) with 10 nM GRP, 1 µM RC-3095, and/or 1 µM IC 182,780, or in 10% FCS. Then, 24 hours after stimulation, inserts were washed with PBS and non-invading cells were removed. Cells in the inserts were fixed in methanol at −20 °C overnight. The inserts were rinsed and the membrane carefully removed using a sharp scalpel. The membrane was mounted in prolong glass DAPI (1.5 µg ml^−1). Assays were performed in triplicate and automatic counting of invading cells was done using an Image/Fiji macro (10.5281/zenodo.14509394). Sequences of siRNAs are given in Supplementary Table 11.

[4] = tested on: 1057 ΔEcad melanoma cells; test: ICI/Fulvestrant experiments: lung metastases after tail-vein injection of 1057 cells; type: in vivo, C57BL/6J mice
Experimental: Mouse and human melanoma cells (5 × 10^5) were suspended in 200 µl PBS and injected into the tail veins of eight-week-old C57BL/6J and NSG mice, respectively. Mice were monitored daily and weighed twice weekly. Euthanasia and autopsy were performed following 20% weight loss or reaching ethical end points.
Right lungs were imaged using a Leica MZFLIII binocular microscope with a Scion camera. Metastases were quantified in ImageJ, with macro-metastases (bigger than 0.1 mm) and micro-metastases (0.1 mm or smaller).
In vitro pre-treatment: 1057 melanoma cells (5 × 10^5) were pretreated for 3 days with 1 µM ICI before tail-vein injection. In vivo treatment: 1057 melanoma cells (5 × 10^5) were injected into C57BL/6J mice, followed by […] Fulvestrant (Zentiva) 3 h after injection, then weekly for 3 weeks. Mice were euthanized on day 25 after injection, and lung metastases were assessed by PCR-based Cre transgene detection. DNA was extracted from lung tissue and metastasis burden was analysed statistically.

[5] = Metabolic stability assay (liver microsomes); type: in vitro ADME, mouse
Experimental: Each compound was diluted to a final concentration of 1 µM in 100 mM phosphate buffer (pH 7.4) containing 0.5 mg ml^−1 mouse liver microsomes, 1 mM NADPH regenerating system and 1 mM MgCl2 and incubated at 37 °C for 1 h. At various time points (0, 2, 10, 20, 40 and 60 min), one volume of ice-cold acetonitrile was added and the supernatants were analysed by LC–MS/MS. To obtain a stability curve, the percentage of remaining test compound at each time point was determined by monitoring the peak area. The half-life was estimated from the slope of the initial linear range of the logarithmic curve of the remaining compound (percentage) against time, assuming first-order kinetics.
Analyses were done on a Shimadzu 8030 LC–MS instrument. Chromatographic separations were done at 40 °C using a 2.6-µm C18 Kinetex column (50 × 2.1 mm; Phenomenex). The mobile phase flow rate was set to 0.5 ml min^−1 and the following program applied for the elution: 0 min, 5% B; 0–1.2 min, 5–95% B; 1.2–1.4 min, 95% B; 1.4–1.42 min, 95-5% B; and 1.42–2.8 min, 5% B (solvent A, 0.05% formic acid in water; solvent B, acetonitrile). The injection volume was 1 µl. The mass spectrometer was interfaced with the liquid-chromatography system using an electrospray ion source. The nitrogen nebulizing gas flow was set to 1.5 l min^−1 and the drying gas flow to 15 ml min^−1. […]

[6] = tested on: ΔEcad mouse 1057 melanoma cells; test: RT-qPCR of β-catenin targets, Esr1 and Grpr after β-catenin inhibition; type: cell-based; details: ΔEcad mouse 1057 cells, iCRT3 10 μM, 48 h (with siRNA targeting Ctnnb1)
Experimental: as §1

[7] = tested on: Daju human melanoma cells; test: RT-qPCR and western blot of ESR1/ERα after iCRT3; type: cell-based; details: iCRT3 80 μM, 48 h
Experimental: as §1, §3

## C[C@]12CC[C@@H]3c4ccc(O)cc4CC[C@H]3[C@@H]1CC[C@@H]2O [E2, 17β-oestradiol]
GRPR mRNA in MCF7 cells
  GRPR mRNA expression: increased GRPR
[1]
  Grpr expression: increased Grpr expression

## C[C@]12CC[C@@H]3c4ccc(O)cc4C[C@@H](CCCCCCCCC[S+]([O-])CCCC(F)(F)C(F)(F)F)[C@H]3[C@@H]1CC[C@@H]2O (stereo partly shown) [ICI 182,780]
GRPR, Gαq/11 activation
  IP1 production, GRPR-positive cells: reduced IP1 production
[2]
  ERα protein level: reduced
GRPR mRNA in MCF7 cells
  GRPR mRNA expression: significantly decreased
[1]
  Grpr expression: reduced it
[3]; 1 µM ICI without GRP
  invasion potential of 1057 cells, ICI alone: no effect
[3]; 1057 (also 1064, GRPR-transduced 1014 and 1181 for RC-3095), 10 nM GRP, 1 µM RC-3095 and/or 1 µM ICI, Matrigel 200 µg ml−1, 0.5% FCS
  invasion (number of invading cells), GRPR-positive mouse lines: significantly reduced
[3]; 1181 male Ecad, 1039 female Ecad, 1456 male ΔEcad, 10 nM GRP and/or 1 µM ICI
  invasion (number of invading cells), Grpr-negative mouse lines: no effect
[4]
  Visible metastases (%): mice with visible lung metastases / mice injected: 1/6
[4]; Fulvestrant 50 mg per kg 3 h after injection of 1057 cells and weekly for three weeks, day 25
  mice with no metastases: 5 of 6
[4]; Fulvestrant-treated mice (50 mg per kg), day 25
  Metastatic burden in lungs, qPCR for the 1057-specific Cre transgene: reduced
[4]; ICI-pretreated 1057 cells, day 25
  Metastatic burden in lungs, qPCR for the 1057-specific Cre transgene: reduced
[4]; mice injected with ICI-pretreated 1057 cells (3 days, 1 µM), day 25, control 1 of 11
  mice with no visible metastases: 9 of 13

## COc1ccc(C2(CNC(=O)[C@](C)(Cc3c[nH]c4ccccc34)NC(=O)Nc3ccc([N+](=O)[O-])cc3)CCCCC2)nc1 [PD-176252]
[5]; mouse, pH 7.4
  Metabolic stability: t1/2: 1.5 ± 0.1 min

## CC(C)C[C@@H](CN[C@@H](CC(C)C)C(N)=O)NC(=O)[C@H](Cc1c[nH]cn1)NC(=O)CNC(=O)[C@@H](NC(=O)[C@H](C)NC(=O)[C@H](Cc1c[nH]c2ccccc12)NC(=O)[C@H](CCC(N)=O)NC(=O)[C@H]1Cc2c([nH]c3ccccc23)CN1)C(C)C [RC-3095]
[5]; RC-3095 versus PD-176252, murine plasma and liver microsomes
  metabolic stability, comparison of the two GRPR antagonists: higher metabolic stability

## CCc1ccc(-c2nc(CSCC(=O)NCCc3ccccc3)c(C)o2)cc1 [iCRT3]
[6]
  expression of Nkd1, Esr1 and Grpr (RT-qPCR): decreased the expression of Nkd1, Esr1 and Grpr
[3]; 1057 cells, iCRT3 and/or GRP
  GRP-induced invasion after β-catenin inhibition: reduced GRP-induced invasion
[7]
  ERα levels at RNA and protein level: reduction
